The test system of one assay is human alpha-synuclein. As to the kind of experiment: Human alpha-synuclein ELISA in transfected SH-SY5Y cells. It is filed as cell-based. The note with it: 5 h, at 1 mM and 100 µM. As to the method:
(§1) Stably transfected human neuroblastoma SH-SY5Y cells with human wild-type alpha-synuclein were treated with 1 mM, 100 µM, 10 µM, 1 µM, 0.1 µM, 0.01 µM and 0.001 µM of each of BK50118-A, BK50118-B, BK50118-C, CL3-499, CL3-512 and CL3-514 dissolved in an equivalent volume of DMSO for 5 h. […] The other 5 compounds were also able to lower alpha-synuclein levels but with less potency (Figure 3H,I,K–M).
SH-SY5Y cells were transiently transfected for 24 h with human wild-type α-synuclein using Fugene HD transfection reagent (Promega, E2311, Madison, WI, USA) according to manufacturer’s protocol. Cells were treated with 1 mM, 0.1 mM, 0.01 mM, 1 µM, 0.1 µM, 0.01 µM and 0.001 µM of each novel compounds (BK50118-A, BK50118-B, BK50118-C, CL3-499, CL3-512 and CL3-514) dissolved in DMSO for 5 h. […] Cell viability was determined via lactate dehydrogenase assay on culture media (Thermofisher, 88954) and MTT assay on plated cells (Thermofisher, V13154). […]
On the technique in general: ELISA stands for enzyme-linked immunosorbent assay.

The next assay deals with T1, USP13 (Homo sapiens, UniProt Q92995).
T1 construct: ELISA for USP13 (MyBioSource, Cat # MBS9335287, San Diego, CA, USA); endogenous in cells; host or cells: human SH-SY5Y neuroblastoma cells transfected with human wild-type alpha-synuclein
T1 sequence (Q92995 1-863): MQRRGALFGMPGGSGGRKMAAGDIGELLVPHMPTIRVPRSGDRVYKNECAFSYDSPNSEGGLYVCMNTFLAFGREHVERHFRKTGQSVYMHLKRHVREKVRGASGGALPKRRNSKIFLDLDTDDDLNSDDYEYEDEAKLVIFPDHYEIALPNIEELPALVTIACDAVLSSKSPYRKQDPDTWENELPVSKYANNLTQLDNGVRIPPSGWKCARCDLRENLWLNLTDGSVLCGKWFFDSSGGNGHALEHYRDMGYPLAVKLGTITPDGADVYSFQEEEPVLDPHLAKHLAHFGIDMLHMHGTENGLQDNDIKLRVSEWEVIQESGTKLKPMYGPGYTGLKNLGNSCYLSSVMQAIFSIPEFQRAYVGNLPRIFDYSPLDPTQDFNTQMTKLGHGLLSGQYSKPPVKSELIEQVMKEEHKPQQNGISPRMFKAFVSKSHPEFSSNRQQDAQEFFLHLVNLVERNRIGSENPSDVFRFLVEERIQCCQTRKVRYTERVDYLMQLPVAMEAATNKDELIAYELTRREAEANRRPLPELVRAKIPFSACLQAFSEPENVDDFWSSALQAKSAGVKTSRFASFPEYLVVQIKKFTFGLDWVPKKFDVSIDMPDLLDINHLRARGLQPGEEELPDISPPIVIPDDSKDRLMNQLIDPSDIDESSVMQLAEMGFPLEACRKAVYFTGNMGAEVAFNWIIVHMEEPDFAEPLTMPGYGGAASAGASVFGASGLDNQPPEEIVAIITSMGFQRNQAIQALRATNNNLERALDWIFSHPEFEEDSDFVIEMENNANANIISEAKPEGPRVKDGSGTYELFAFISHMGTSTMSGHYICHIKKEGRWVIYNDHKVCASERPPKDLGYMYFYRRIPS
As to the kind of experiment: USP13 activity via functional ELISA in alpha-synuclein transfected SH-SY5Y cells. It counts as cell-based. The note with it: SH-SY5Y cells transfected with human alpha-synuclein, 5 h, read-out: Estimated IC50 to USP13. As for the experimental part:
as §1
SH-SY5Y cells were transiently transfected for 24 h with human wild-type α-synuclein using Fugene HD transfection reagent (Promega, E2311, Madison, WI, USA) according to manufacturer’s protocol. Cells were treated with 1 mM, 0.1 mM, 0.01 mM, 1 µM, 0.1 µM, 0.01 µM and 0.001 µM of each novel compounds (BK50118-A, BK50118-B, BK50118-C, CL3-499, CL3-512 and CL3-514) dissolved in DMSO for 5 h. Cells were then harvested on ice by removing culture medium and adding 0.2 mL 1x sodium-tris, EDTA, NP-40 (STEN) buffer (50 mM Tris (pH 7.6), 150 mM NaCl, 2 mM EDTA, 0.2 % NP-40, 0.2 % with Halt protease and phosphatase inhibitor solution (ThermoFisher, 78446). Cells were detached with a cell scraper and collected into centrifuge tubes and incubated at 4 °C for 30 min with agitation. Samples were stored at −80 °C and used for ELISA analyses. For cell viability assay, SHSY-5Y cells stably expressing human wild-type alpha-synuclein were treated with 1 mM, 0.1 mM, 0.01 mM, 1 µM, 0.1 µM, 0.01 µM and 0.001 µM of each novel compound (BK50118-A, BK50118-B, BK50118-C, CL3-499, CL3-512 and CL3-514) dissolved in DMSO for 5 h. Cell viability was determined via lactate dehydrogenase assay on culture media (Thermofisher, 88954) and MTT assay on plated cells (Thermofisher, V13154).
The ELISA for USP13 (MyBioSource, Cat # MBS9335287, San Diego, CA, USA), Human alpha-synuclein (Biolegend, Cat # 844101, San Diego, CA, USA) and specific p-Tau ser396 (Invitrogen, KHB7031, Waltham, MA, USA) were performed on cell or brain tissue extracts as described above according to manufacturers’ protocol.
All statistical analyses were performed using GraphPad Prism version 5.0 (GraphPad software, Inc, San Diego, CA, USA). Two-tailed student’s t-test was used in comparison of means of two groups. Ordinary one-way analysis of variance (ANOVA) followed by Newman–Keuls or Dunnett comparison post hoc tests were used in comparison of means of multiple groups. Asterisks denote actual p-value significances (* < 0.05, ** < 0.01, *** < 0.001 and **** < 0.0001), and N is the number of animals or the number of independent experiments (cell culture) per group. Unless otherwise indicated, data are expressed as Mean ± SD. IC50 to USP13 levels was also estimated using GraphPad Prism version 5.0 (GraphPad software, Inc, San Diego, CA, USA).

In the case of `Fc1ccc2nccc(OCc3ccccc3)c2c1` [BK50118-C, 4-benzyloxy-6-fluoroquinoline], the “alpha-synuclein levels (ELISA)” value in the assay on human alpha-synuclein is “almost complete alpha-synuclein clearance”. In addition, the IC50 at USP13 was 420 pM.

For orientation: IC50 means the concentration at which inhibition is half-maximal.

The values above are taken from publication PMC8467576, “Novel Ubiquitin Specific Protease-13 Inhibitors Alleviate Neurodegenerative Pathology” (Metabolites, 2021).
